A word on the ΔTm: it is the shift of the melting midpoint relative to a reference.

The values that follow come from patent US9464308B2, “Method for transcriptional amplification of nucleic acids combining steps of different temperatures” (priority 2011, dated 2016).

Read-outs that look alike come from different tables or passages of the source.

In one test the test system is AMV-RT. Nature of the test: Residual AMV-RT activity after preincubation at various temperatures, with or without 0.4 M trehalose. Format: biochemical. The following applies: 25 minutes of preincubation at various temperatures. The protocol:
FIG. 3C describes the residual activity of AMV-RT after 25 minutes of preincubation at various temperatures, with or without 0.4 M trehalose.
(§1) Description of the method for measuring the T7 RNA polymerase, RNAse H and AMV-RT activities for example 5: • 1. The T7 RNA polymerase, RNAse H and AMV-RT enzymes are used at volumetric activities of 109 kU/ml, 1 kU/ml and 25 kU/ml respectively. • 2. The T7 RNA polymerase, RNAse H and AMV-RT enzymes are diluted in the solution W1 of example 3 according to the ratios 1/43, 2/191 and 2/27 respectively, in order to mimic the physicochemical environment of the NASBA reaction. • 3. […] The residual activity of each of the T7 RNA polymerase, RNAse H or AMV-RT activities is then measured by adding 5 μl of enzymatic solution to 20 μl of solution S containing the reagents corresponding to each of the activities measured. […]
(§2) • 6. The residual activity of each mutant is expressed as percentage of the fraction of enzyme having not been preincubated and corresponding to 100% activity according to the following calculation: • ρN=slope obtained between 5 and 10 min for the enzyme not preincubated, • ρT=slope obtained between 5 and 10 min for the enzyme preincubated at various temperatures, with or without the presence of the polyol to be studied, and • percentage relative activity=% (ρT/ρN).

The test system of a further test is RNAse H. Nature of the test: Residual RNAse H activity after preincubation at various temperatures, with or without 0.4 M trehalose. It counts as biochemical. The settings on record: 25 minutes of preincubation at various temperatures. The protocol:
FIG. 3B describes the residual activity of RNAse H after 25 minutes of preincubation at various temperatures, with or without 0.4 M trehalose.
as §1, §2

In test [1] the target is T1, T7 RNA polymerase (Escherichia phage T7, UniProt P00573).
T1 construct: purchased bioMérieux, Marcy l'Etoile, France
The test can be described thus: Residual T7 RNA polymerase activity after preincubation at various temperatures, with or without 0.4 M trehalose. Format: biochemical. The settings on record: 15 minutes of preincubation at various temperatures. The protocol:
FIG. 3A describes the residual activity of T7 RNA polymerase after 15 minutes of preincubation at various temperatures, with or without 0.4 M trehalose.
as §1, §2

The target in test [2] is T1, T7 RNA polymerase. The test can be described thus: Maximum preincubation temperature preserving T7 RNA polymerase activity (3 min preincubation). The settings on record: 3 minutes at 48° C.; 0.7 M sucrose, 0.4 M trehalose, 1.4 M sorbitol. Format: biochemical. The protocol: FIG. 2 describes the residual activity (%) of T7 RNA polymerase after 3 minutes of preincubation at various temperatures and in the presence of various thermostabilizing compounds.
In this example, the maximum temperature that the T7 RNA polymerase could withstand for a preincubation of 3 minutes in the presence of thermostabilizing compounds is determined.
This step can be likened to a target predenaturation or preincubation phase. The protocol used in this example is similar to that of example 2, with the exception of the fact that the temperatures are variable and that the preincubation time was fixed at 3 minutes.

Test [3] has as its target T1, T7 RNA polymerase. Nature of the test: Thermal denaturation of T7 RNA polymerase (T7 Tm) by UV spectrophotometry. It counts as physicochemical. The settings on record: for ΔTm: T7 RNA polymerase at 0.05 mg/ml, PBS 150 mM pH 7.5, versus control without additive (T7 Tm 48.5° C.), Sorbitol 1M, Sucrose 1M, Lactose 0.35M, Raffmose 0.085M, D-Turanose 0.15M; for denaturation temperature of the enzyme (in words): heating T7 RNA polymerase in the presence of the additive. Here is the method:
T7 RNA polymerase was chosen as model enzyme since it is the most sensitive to thermal denaturation; the T7 Tm without additive is 48.5° C.
A UV spectrophotometry technique is used to measure the T7 Tm values. The change in the absorbance of the protein at λ=280 nm as a function of temperature is measured. When the enzyme is heated, the solution becomes cloudy, and aggregates form which correspond to the denatured form. The Tm corresponds to the temperature for which there is 50% of native form and 50% of denatured form (first derivative of the curve absorbance=f(temperature)).
In a polypropylene flask, 4 ml of 300 mM PBS phosphate buffer (Aldrich P-4417, St Quentin Fallavier, France) are mixed with 12μl of T7 RNA polymerase enzyme (bioMérieux, Marcy l'Etoile, France) at 17 mg/ml, i.e. a final protein concentration of 0.05 mg/ml. 500 μl of T7 RNA polymerase solution at 0.05 mg/ml and 500 μl of a concentrated solution of additives (Aldrich, St Quentin Fallavier, France) or of 300 mM PBS for the control are then placed in a quartz cuvette for UV spectrophotometry. After homogenization, the change in absorbance at λ=280 nm is measured as a function of temperature, between 30 and 65° C. at 1° C./min, in order to determine the T7 Tm as previously described (Cary UV spectrophotometer, Varian, Les Ulis, France).

For a further test, the system named is HIV-1 type B transcript. The test can be described thus: NASBA HIV-1 2.0 amplification test at 46° C., functional screening of thermostabilizing compounds. The following applies: 7.5 cps/reaction HIV-1B transcript, lactose 0.21 M, sorbitol 1.2 M, sucrose 0.6 M. Format: biochemical. The protocol: The FIG. 1 represent the functional screening of thermostabilizing compounds during NASBA amplifications at 46° C. in the presence of 7.5 cps/reaction of HIV-1B transcript (seven replicas per screening), with in:
A set of compounds with thermostabilizing properties or assumed to have such properties was evaluated in a NASBA HIV-1 2.0 amplification test on a Nuclisens EasyQ™ amplification platform (bioMérieux, Marcy l'Etoile, France) according to the supplier's recommendations. 5 cps to 30 cps of an HIV-1 type B transcript were used as target in each reaction in the presence or absence of the compound to be evaluated.
The obtaining of an amplification in the presence of the compound at a temperature of 46° C. makes it possible to validate the compound as compatible and thermostabilizing for the NASBA reaction.

Test [4] has as its target T1, T7 RNA polymerase. The test can be described thus: Thermostability (T1/2) at 46° C. of T7 RNA polymerase activity. Format: biochemical. The following applies: environment specific to NASBA, sorbitol 1.48 M. Here is the method:
In this example, the values of T1/2 of T7 RNA polymerase are determined in the presence or absence of polyols. A description of the measurement method is given below, as are the various reagents used.
Mix buffers B, C and D according to the following proportions with the following Nuclisens™ HIV-1 2.0 reagents (ref.: 285033, bioMérieux, Marcy l'Etoile, France) (for eight reactions): • 36.08 μl buffer A • 6.32 μl buffer B • 25.36 μl buffer C • 173.6 μl buffer D • eight “Nuclisens™ HIV-1 2.0 accusphere reagent” • 960 μl of “Nuclisens™ HIV-1 2.0 diluent reagent”. […]
• 1. The enzymes to be evaluated are diluted in such a way as to have a volumetric activity of 109 kU/ml. • 2. A volume of 20 μl of the enzyme to be evaluated is diluted in 840 μl of solution W1. • 3. 114 μl of the compound to be evaluated are then added to 193.5 μl of enzymatic mix described in point 2 above. • 4. […] 20 μl of solution S are added to 5 n1 of this preincubated mixture in order to measure the rate of increase in fluorescence between 5 and 10 minutes, associated with the residual activity of the enzyme. • 6. […]

T1 sequence (P00573 whole entry): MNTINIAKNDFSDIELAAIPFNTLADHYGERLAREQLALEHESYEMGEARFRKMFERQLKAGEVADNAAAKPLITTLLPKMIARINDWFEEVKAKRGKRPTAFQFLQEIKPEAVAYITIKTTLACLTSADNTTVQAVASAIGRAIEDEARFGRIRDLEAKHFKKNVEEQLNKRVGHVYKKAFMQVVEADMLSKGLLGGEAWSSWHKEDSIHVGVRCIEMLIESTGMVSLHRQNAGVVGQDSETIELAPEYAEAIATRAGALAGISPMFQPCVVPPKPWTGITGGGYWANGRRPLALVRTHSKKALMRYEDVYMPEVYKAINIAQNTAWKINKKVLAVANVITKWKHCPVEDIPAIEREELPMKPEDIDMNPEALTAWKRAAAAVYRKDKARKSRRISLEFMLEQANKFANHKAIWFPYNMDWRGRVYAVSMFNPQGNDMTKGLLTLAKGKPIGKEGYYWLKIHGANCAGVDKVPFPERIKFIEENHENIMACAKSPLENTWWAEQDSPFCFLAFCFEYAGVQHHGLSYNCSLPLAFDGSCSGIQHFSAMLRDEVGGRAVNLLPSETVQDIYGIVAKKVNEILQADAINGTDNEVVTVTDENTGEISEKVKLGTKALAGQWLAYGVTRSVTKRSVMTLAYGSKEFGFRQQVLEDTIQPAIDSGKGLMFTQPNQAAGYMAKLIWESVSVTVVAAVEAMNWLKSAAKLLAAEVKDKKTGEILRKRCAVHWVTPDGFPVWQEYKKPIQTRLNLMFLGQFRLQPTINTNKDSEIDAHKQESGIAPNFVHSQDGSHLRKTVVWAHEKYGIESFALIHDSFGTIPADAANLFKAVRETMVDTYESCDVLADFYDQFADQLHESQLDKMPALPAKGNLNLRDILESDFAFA

With `OC[C@H]1O[C@H](O[C@H]2O[C@H](CO)[C@@H](O)[C@H](O)[C@H]2O)[C@H](O)[C@@H](O)[C@@H]1O` [Trehalose, trehalose], the “thermostabilizing effect on AMV-RT activity (in words)” value in the test on AMV-RT is “thermostabilizing effect”. For the same compound, the “thermostabilizing effect on RNAse H activity (in words)” value in the test with RNAse H is on record as “thermostabilizing effect”. The “thermostability of T7 RNA polymerase (in words)” value at T7 RNA polymerase [1] was “makes it possible to render it more thermostable”. Moreover, on T7 RNA polymerase [2], the “T7 RNA polymerase activity preserved” value amounted to 100%.
As to `OC[C@H]1O[C@@H](O[C@H]2[C@H](O)[C@@H](O)C(O)O[C@@H]2CO)[C@H](O)[C@@H](O)[C@H]1O` (some centres unmarked) [Lactose, lactose], the ΔTm at T7 RNA polymerase [3] (read-out: ΔTm) is 5.5 °C. In addition, the “denaturation temperature of the enzyme (in words)” value on T7 RNA polymerase [3] is listed as “very significantly increase the denaturation temperature of the enzyme”. For the same compound, in the test with HIV-1 type B transcript, the “NASBA amplification at 46° C. (positive signals out of seven replicas)” value is reported as “at least four positive signals out of seven replicas”. For the same compound, the “thermostabilizing effect on the T7 RNA polymerase activity (in words)” value on T7 RNA polymerase [4] is listed as “weak thermostabilizing power”.
`O=C(CO)[C@@H](O[C@H]1O[C@H](CO)[C@@H](O)[C@H](O)[C@H]1O)[C@H](O)[C@H](O)CO` [D-Turanose]: at T7 RNA polymerase [3], the ΔTm was −4.4 °C.
For the compound `OC[C@H]1O[C@H](OC[C@H]2O[C@H](O[C@]3(CO)O[C@H](CO)[C@@H](O)[C@@H]3O)[C@H](O)[C@@H](O)[C@@H]2O)[C@H](O)[C@@H](O)[C@H]1O` [Raffmose, raffinose], at T7 RNA polymerase [3] (read-out: ΔTm), the ΔTm came to 0.5 °C.
As for `OC[C@H]1O[C@@](CO)(O[C@H]2O[C@H](CO)[C@@H](O)[C@H](O)[C@H]2O)[C@@H](O)[C@@H]1O` [Sucrose, sucrose], the ΔTm at T7 RNA polymerase [3] (read-out: ΔTm) stood at 5.8 °C. On T7 RNA polymerase [3], the “denaturation temperature of the enzyme (in words)” value is listed as “very significantly increase the denaturation temperature of the enzyme”. The “NASBA amplification at 46° C. (positive signals out of seven replicas)” value in the test with HIV-1 type B transcript is on record as “at least four positive signals out of seven replicas”. The “T7 RNA polymerase activity preserved” value at T7 RNA polymerase [2] was 100%.
